Results on two molecules are retold here after patent publication US20110165271A1, “ANTITUMORAL TERPENOID PHARMACEUTICAL COMPOSITION 'ABISILIN' EXHIBITING ANGIOGENESIS-INHIBITING ACTION” (priority 2008, published 2011).

What is called TGI is the reduction of tumour growth relative to the control group. Low values mean a weaker effect on the tumour, high ones a stronger effect on the tumour.

The subject of test [1] is metastatic colorectal cancer. The note with it: patients bearing metastatic colorectal cancer; increase from 15.6 months; cited from earlier work.
In a further test the test system is melanoma B-16. The test is described as follows: Antitumor activity on transplantable tumor. It is filed as in vivo, mice. Conditions: Abisilin 50 mg/kg per os days 2-11 and/or Cisplatin 5 mg/kg once day 2. As for the experimental part: (§1) The mice and rats were purchased from the Experimental Animal Division of the Blokhin Russian Oncologic Center, the Russian Academy of Medicinal Sciences, and maintained on an ordinary food ration.
(§2) Sunflower seed oil was used as the solvent for the pharmaceutical.
(§3) Cisplatin purchased from Bristol-Myers Squibb was used in the experiments.
(§4) Abisilin was administered to animals orally every day for 10 days, or in the following schedule: on the 2nd and 6th days or on the 2nd and 11th days. […] In the combined treatment, Abisilin was administered to mice orally every day for 10 days, beginning 48 h after tumor transplantation, in a dose of 50 mg/kg; the antitumor agent Cisplatin was administered once intraperitonially (ip) in a dose of 5 mg/kg. Animals bearing the aforementioned tumors were monitored until they died. The antitumor effects of the pharmaceutical were judged from percentage tumor growth inhibition (TGI, %) in the experimental animals against control animals.
(§5) The statistical significance of the antitumor effect against the untreated control was determined by the Fisher-Student test. The difference between the compared groups was regarded as statistically reliable when p≦0.05.

For test [2], the system named is colon adenocarcinoma (CAC). The test is described as follows: Antitumor activity on transplantable tumor. It is filed as in vivo, mice. As for the experimental part:
as §1, §2, §3, §4, §5

The test system of test [3] is breast adenocarcinoma Ca-755. The test is described as follows: Antitumor activity on transplantable tumor. It is filed as in vivo, mice. The note with it: Abisilin 50 mg/kg per os days 2-11 and/or Cisplatin 5 mg/kg once day 2. Here is the method: as §1, §2, §3, §4, §5

“Avastin: monoclonal antibody drug binding vascular endothelial growth factor (VEGF); active substance bevacizumab”: the total survival period in test [1] was 20.3 months.

Turning to `N.N.[Cl][Pt][Cl]` [Cisplatin], the tumour growth inhibition (TGI) in the test with melanoma B-16 (day 7) is reported as 80%; in the test with melanoma B-16 (day 9), 83%; with melanoma B-16 (day 11) it was 65%; with melanoma B-16 (day 17) it was 19%; in test [2] (day 7, Abisilin 50 mg/kg per os days 2-11 and/or Cisplatin 5 mg/kg once day 2), 0%; in test [2] (day 12, Abisilin 50 mg/kg per os days 2-11 and/or Cisplatin 5 mg/kg once day 2), 22%. Further, the TGI in test [2] (day 21, Abisilin 50 mg/kg per os days 2-11 and/or Cisplatin 5 mg/kg once day 2) was 14%; in test [2] (day 22, Cisplatin 5 mg/kg once day 2) it was 35%; in test [3] (day 7), 86%; in test [3] (day 11) it was 62%; in test [3] (day 14), 52%; in test [3] (day 18), 43%. Also, in test [3] (day 22), the inhibition of tumour growth (TGI) is 39%. Moreover, in test [2] (monotherapy, Abisilin 50 mg/kg, Cisplatin 5 mg/kg), the “sensitivity of the tumor in monotherapy” value was “insensitive”.
